Where a name gives a salt, the structure may show the parent alone.

This assay concerns serotonin re-uptake (synaptosomal re-uptake of tritiated serotonin). Nature of the assay: Inhibition of synaptosomal re-uptake of tritiated serotonin. The note with it: in vitro; nM of test compound that inhibits uptake by 50%; read-out: SUI (Serotonin Uptake Inhibition potency), in vitro IC50. The class given is biochemical. On the procedure: Determination of endogenous monoaminergic re-uptake inhibition values for serotonin was accomplished using test methods described by P. Skolnick, et al., Br. J. Pharmacology, (1985), 86, pp. 637-644; with only minor modifications. In vitro IC50 (nM) test values were determined for representative compounds of Formula I based on their inhibition of synaptosomal re-uptake of tritiated serotonin. Test data IC50 values lower than 500 nM are considered to reflect activity as an inhibitor of serotonin re-uptake.
As for `COc1cccnc1N(C)CCCN1CC=C(c2cccc3ccccc23)CC1` [Example 14, 3,6-dihydro-N-(3-methoxy-2-pyridinyl)-N-methyl-4-(1-naphthalenyl)-1(2H)-pyridinepropanamine fumarate], the IC50 was less than 100 nM.
The value for `CCOc1cccnc1N(C)CCCN1CC=C(c2cccc3ccccc23)CC1` [Example 15, 3,6-dihydro-N-(3-ethoxy-2-pyridinyl)-N-methyl-4-(1-naphthalenyl)-1(2H)-pyridinepropanamine fumarate] was less than 100 nM; that for `CN(CCCN1CC=C(c2cccc3ccccc23)CC1)c1cc(C(F)(F)F)ccn1` [Example 16, 3,6-dihydro-N-methyl-N-(4-trifluoromethyl-2-pyridinyl)-4-(1-naphthalenyl)-1(2H)-pyridinepropanamine fumarate] was less than 100 nM; that for `CN(CCCN1CC=C(c2cccc3ccccc23)CC1)c1ccc(Cl)cn1` [Example 17, 3,6-dihydro-N-methyl-N-(5-chloro-2-pyridinyl)-4-(1-naphthalenyl)-1(2H)-pyridinepropanamine fumarate] was less than 10 nM.
Take `CN(CCCN1CC=C(c2cccc3ccccc23)CC1)c1cccc(C(F)(F)F)n1` [Example 18, 3,6-dihydro-N-methyl-N-(6-trifluoromethyl-2-pyridinyl)-4-(1-naphthalenyl)-1(2H)-pyridinepropanamine fumarate]: the half-inhibitory concentration (IC50) is less than 100 nM.
Under `CN(CCCN1CC=C(c2cccc3ccccc23)CC1)c1cc(Cl)ccn1` [Example 19, 3,6.dihydro-N-methyl-N-(4-chloro-2-pyridinyl)-4-(1-naphthalenyl)-1(2H)-pyridinepropanamine] stands less than 100 nM; under `CN(CCCN1CC=C(c2cccc3ccccc23)CC1)c1ccnc(Cl)c1` [Example 20, 3,6-dihydro-N-methyl-N-(2-chloro-4-pyridinyl)-4-(1-naphthalenyl)-1(2H)-pyridinepropanamine fumarate], less than 10 nM.
For `COc1cncnc1N(C)CCCN1CC=C(c2cccc3ccccc23)CC1` [Example 21, 3,6-dihydro-N-(5-methoxy-4-pyrimidinyl)-N-methyl-4-(1-naphthalenyl)-1(2H)-pyridinepropanamine fumarate], the concentration for half-maximal inhibition (IC50) is less than 10 nM.
For `CCN(CCCN1CC=C(c2cccc3ccccc23)CC1)c1ncncc1OC` [Example 22, 3,6-dihydro-N-(5-methoxy-4-pyrimidinyl)-N-ethyl-4-(1-naphthalenyl)-1(2H)-pyridinepropanamine fumarate], the IC50 was less than 10 nM.
Take `COc1ccc2cccc(C3=CCN(CCCNc4ncncc4OC)CC3)c2c1` [Example 23, 3,6-dihydro-4-(7-methoxy-1-naphthalenyl)-N-(5-methoxy-4-pyrimidinyl)-1(2H)-pyridinepropanamine fumarate]: the IC50 is less than 100 nM.
As for `COc1cncnc1NCCCN1CC=C(c2cccc3ccc(F)cc23)CC1` [Example 24, 3,6-dihydro-4-(7-fluoro-1-naphthalenyl)-N-(5-methoxy-4-pyrimidinyl-1(2H)-pyridinepropanamine fumarate], the IC50 was less than 500 nM.
The value for `COc1cncnc1NCCCN1CC=C(c2cccc3ccc(Cl)cc23)CC1` [Example 25, 3,6-dihydro-4-(7-chloro-1-naphthalenyl)-N-(5-methoxy-4-pyrimidinyl)-1(2H)-pyridinepropanamine fumarate] was less than 500 nM; that for `COc1cncnc1NCCN1CC=C(c2cccc3ccccc23)CC1` [Example 26, 3.6-dihydro-4-(1-naphthalenyl)-N-(5-methoxy-4-pyrimidinyl)-1(2H)-pyridineethanamine fumarate] was less than 100 nM; that for `COc1cncnc1NCCCN1CC=C(c2cccc3ccccc23)CC1` [Example 27, 3.6-dihydro-4-(1-naphthalenyl)-N-(5-methoxy-4-pyrimidinyl)-1(2H)-pyridinepropanamine hydrochloride] was less than 10 nM.
In the case of `CCOc1cncnc1NCCCN1CC=C(c2cccc3ccccc23)CC1` [Example 28, 3,6-dihydro-4-(1-naphthalenyl)-N-(5-ethoxy-4-pyrimidinyl)-1-(2H)-pyridinepropanamine fumarate], the IC50 is less than 10 nM.
For the compound `COc1cnccc1NCCCN1CC=C(c2cccc3ccccc23)CC1` [Example 29, 3,6-dihydro:4-(1-naphthalenyl)-N-(3-methoxy-4-pyridinyl)-1(2H)-pyridinepropanamine fumarate], the half-inhibitory concentration (IC50) is less than 100 nM.
For `Clc1nccnc1NCCCN1CC=C(c2cccc3ccccc23)CC1` [Example 30, 3,6-dihydro-4-(1-naphthalenyl)-N-(3-chloro-2-pyrazinyl)-1(2H)-pyridinepropanamine fumarate], the 50% inhibitory concentration (IC50) is less than 10 nM.
On to `COc1nccnc1NCCCN1CC=C(c2cccc3ccccc23)CC1` [Example 31, 3,6-dihydro-4-(1-naphthalenyl)-N-(3-methoxy-2-pyrazinyl)-1(2H)-pyridinepropanamine fumarate], for which the IC50 was less than 10 nM.
In the case of `COc1cncnc1NCCCCN1CC=C(c2cccc3ccccc23)CC1` [Example 32, 3,6-dihydro-N-(5-methoxy-4-pyrimidinyl)-4-(1-naphthalenyl)-1(2H)-pyridinebutanamine fumarate], the IC50 is less than 100 nM.
The value for `COc1cccnc1NCCCN1CC=C(c2cccc3ccccc23)CC1` [Example 33, 3,6-dihydro-N-(3-methoxy-2-pyridinyl)-4-(1-naphthalenyl)-1(2H)pyridinepropanamine fumarate] was less than 10 nM; that for `CCOc1cccnc1NCCCN1CC=C(c2cccc3ccccc23)CC1` [Example 34, 3,6-dihydro-N-(3-ethoxy-2-pyridinyl)-4-(1-naphthalenyl)-1(2H)-pyridinepropanamine fumarate] was less than 10 nM.
With `FC(F)(F)c1cccc(NCCCN2CC=C(c3cccc4ccccc34)CC2)n1` [Example 35, 3,6-dihydro-N-(6-trifluoromethyl-2-pyridinyl)-4-(1-napthalenyl)-1(2H)-pyridinepropanamine fumarate], the IC50 was less than 100 nM.
Consider `Clc1ccc(NCCCN2CC=C(c3cccc4ccccc34)CC2)nc1` [Example 36, 3,6-dihydro-N-(5-chloro-2-pyridinyl)-4-(1-naphthalenyl)-1(2H)-pyridinepropanamine fumarate], for which the half-maximal inhibitory concentration (IC50) was less than 10 nM.
The value for `FC(F)(F)c1ccnc(NCCCN2CC=C(c3cccc4ccccc34)CC2)c1` [Example 37, 3,6dihydro-N-(4-trifluromethyl-2-pyridinyl)-4-(1-napthalenyl-1(2H)-pyridinepropanamine fumarate] was less than 100 nM.
As to `COc1cncnc1NCCCN1CCC(c2cccc3ccccc23)CC1` [Example 38, 4-(1-naphthalenyl)-N-(5-methoxy-4-pyrimidinyl)-1-piperidinepropanaminefumarate], the IC50 was less than 10 nM.
Regarding `C1=C(c2cccc3ccccc23)CCN(CCCNc2cccc3ccccc23)C1` [Example 39, 3,6-dihydro-N-(1-naphthalenyl)-4-(1-naphthalenyl)-1(2H)-pyridinepropanamine fumarate], the IC50 was less than 10 nM.
The value for `COc1ccccc1NCCCN1CC=C(c2cccc3ccccc23)CC1` [Example 40, 3,6-dihydro-N-(2-methoxyphenyl)-4-(1-naphthalenyl)-1-(2H)-pyridinepropanamine fumarate] was less than 10 nM; that for `Clc1cccc(NCCCN2CC=C(c3cccc4ccccc34)CC2)c1` [Example 41, 3,6-dihydro-N-(3-chlorophenyl)-4-(1-naphthalenyl)-1(2H)-pyridinepropanamine fumarate] was less than 100 nM.
Under `FC(F)(F)c1cccc(NCCCN2CC=C(c3cccc4ccccc34)CC2)c1` [Example 42, 3,6-dihydro-N-(3-trifluoromethylphenyl)-4-(1-naphthalenyl)-1(2H)-pyridinepropanamine fumarate] stands less than 100 nM.

In general, IC50 refers to the concentration needed to halve the response being measured.
